# Results published in patent US20220401377A1, “COMPOSITION FOR PREVENTING AND/OR TREATING NEURODEGENERATIVE DISORDERS” (ICHIMARU PHARCOS CO., LTD., priority 2019, published 2022).
# Columns and labels:
# [1] = system: human breast cancer cell line (MCF-7); settings: MCF-7, Non-patent literature 1; cited from earlier work
# [2] = system: mouse model of memory impairment; assay: Y-shaped maze test in scopolamine mouse model of memory impairment; assay type: in vivo; settings: ICR mice, scopolamine 3 mg/kg i.p., Y-shaped maze on day 7
# Experimental: The memory-improving effect of araliadiol was confirmed by administering (orally by sonde) a composition containing arariadiol (a compound shown in Formula I) to a mouse model of memory impairment.
# Experimental methods are described below. The following groups of ICR mice (male, 7 weeks old/purchased from SLC Japan) were established. The mice in each group, except for the untreated group, were treated with the composition orally administered by sonde and scopolamine administered intraperitoneally (i.p.). The composition contains a predetermined amount of araliadiol in distilled water. Scopolamine was administered at a dose of 3 mg per kg of mice to cause memory impairment in mice. […] For groups other than the untreated group, distilled water or the composition was administered daily from day 0 to day 6 (seven doses of the composition), with day 0 being the first day of administration of distilled water or the composition. On the 7th day, all groups of mice were tested in a Y-shaped maze test. Scopolamine was administered to all groups of mice except the untreated group 30 minutes before the start of the Y-shaped maze test. • Untreated group: 15 ICR mice that were treated with distilled water containing no araliadiol, but not with scopolamine. • Control group: 16 ICR mice were treated with distilled water containing no araliadiol and scopolamine. • Araliadiol 1 mg/kg group: 16 ICR mice were treated with a composition containing araliadiol (1 mg of araliadiol per 1 kg of mouse body weight per day: 1 mg/kg/day) and scopolamine. • Araliadiol […]: A group of 16 ICR mice that received a composition containing araliadiol (10 mg of araliadiol per kg of mouse body weight per day: 10 mg/kg/day) and a dose of SCOPE.
# The Y-shaped maze device shown in FIG. 11 (made of gray acrylic: 40 cm long×10 cm wide×12 cm high) was used to conduct the Y-shaped maze test. In the Y-shaped maze test, mice were allowed to explore in the device, and the spontaneous alternations observed during the exploratory behavior were evaluated as short-term memory. The mice were placed at the tip of one of the three arms of the Y-shaped maze, allowed to explore freely in the maze for 8 minutes, and the arms they entered were recorded in order. The number of times for the mouse to enter each arm (total number of arm entries) and the number of combinations of consecutive entries into three different arms (number of alternation behaviors) were examined during the measurement period (8 minutes). The alternation behavior (%) was calculated from the following formula and used as an index of short-term memory.
# Alternating behavior (%)=number of alternating actions/(total number of arm entries−2)×100
compound,measurement,setting,value
"C=C[C@H](O)C#CC#C[C@H](O)/C=C\CCCCC [Araliadiol, 3(S),8(R)-pentadeca-1,9(Z)-diene-4,6-diyne-3,8-diol]",cell cycle,[1],arrest the cell cycle
same,proliferation,[1],inhibit the proliferation
same,Alternating behavior (%),[2]; 1 mg/kg/day oral for 7 days,50.87%
same,Alternating behavior (%),"[2]; 1 mg/kg/day oral for 7 days, listed as araliadiol",increase in the rate of alternation behavior
same,Alternating behavior (%),[2]; 10 mg/kg/day oral for 7 days,53.18(*) %
same,Alternating behavior (%),"[2]; 10 mg/kg/day oral for 7 days, listed as araliadiol",improvement in the rate of alternating behavior
